Where no end group is shown, it is not given here.
Assays:
epitope peptide = test: Antibody titer (GMT) of serum of mice administered AJP001 conjugated peptide, ELISA; type: in vivo, mouse; settings: BALB/c mice, 0.5 mg/body intradermal with equal amount of 2% Alhydrogel, 3 times at two-week intervals; serum 6 weeks after initial administration; titer to each epitope sequence
Description: AJP001 conjugated peptide having one of the B cell epitope sequences of SEQ ID NOs: 1-5 was dissolved in physiological saline and intradermally administered twice to BALB/c mice (female, 6-week-old, N=5-6) at 0.5 mg/body at 2-week intervals. Blood was collected before administration and 5 weeks after the initial administration, and the antibody titer against each AJP001 conjugated peptide and the binding ability to recombinant mouse IL-23 protein (rmIL-23) were measured by the ELISA method. Specifically, a 96-well plate immobilized with an epitope peptide dissolved at 10 μg/mL in carbonate buffer was blocked with 5% skim milk/PBS, and then serum serially diluted with 5% skim milk/PBS was added, and the mixture was left standing at 4° C. overnight. After washing the wells with PBS-T, HRP-labeled anti-mouse IgG antibody (GE Healthcare) diluted with 5% skim milk/PBS was added and the mixture was shaken at room temperature for 3 hr. After washing the wells with PBS-T, TMB solution (SIGMA) was added, the wells were allowed to stand for 30 min in the dark, the reaction was stopped by adding 0.5M H2SO4, and the absorbance at 450 nm was measured using a plate reader. The serum dilution rate that gave 1/2 (OD=1.75) of the maximum absorbance was defined as the antibody titer, and the geometric mean titer: GMT was calculated from the individual values. Binding to IL-23 protein was measured by the ELISA method in the same manner as the antibody titer, using rmIL-23 (Antibodies-online GmbH) as the solid-phased antigen and goat serum for blocking.
AJP001 conjugated peptide (SEQ ID NO: 2) was dissolved in physiological saline and intradermally administered to BALB/c mice (female, 6-week-old, N=6) at 1 mg/body 3 times at two-week intervals, and blood was collected every 2 weeks until 8 weeks. The antibody titer (GMT) of all the collected sera and the binding ability to rmIL-23 of the serum at the time point of 6 weeks were measured by the ELISA method (same method as in Example 1). The antibody titer and the binding of the induced antibody to rmIL-23 at each time point are shown in FIGS. 2 (a) and (b), respectively.
AJP001 conjugated peptide (SEQ ID NOs: 6-37) was dissolved in physiological saline, mixed with an equal amount of 2% Alhydrogel (invivogen), and this was intradermally administered to BALB/c mice (female, 6-week-old, N=5-6) at 0.5 mg/body 3 times at two-week intervals. Blood was collected before administration and at the time point of 6 weeks after initial administration, and the antibody titer (GMT) to each epitope sequence and binding ability to recombinant human IL-23 protein (rhIL-23) (Peprotech) were measured by the ELISA method (same method as in Example 1). The binding to rhIL-23 was evaluated by a binding ratio to normal serum by calculating the ratio of the absorbance of a well added with normal mouse serum to the absorbance of a well added with antiserum derived from a mouse administered with each AJP001 conjugated peptide (SEQ ID NOs: 6-37). In addition, the neutralization activity of mouse antiserum was evaluated using an action on IL-17 production in rhIL-23 stimulated mouse splenocyte as an index. The spleen of normal BALB/c mouse (female, 5-week-old, N=3) was triturated using a syringe barrel and a cell strainer and washed with and suspended in HBSS (−). Erythrocytes were then removed using ACK Buffer (Thermo fisher scientific), and splenocytes were isolated. The splenocytes were prepared to 2.5×10^6 cells/mL with 10% FBS/1% penicillin/streptomycin/4 ng/mL rmIL-2-containing RPMI1640 medium (culture medium), and seeded in a 96 well plate at 100 μl/well. The antiserum (final concentration 15-fold) of the mice administered with each AJP001 conjugated peptide and rhIL-23 (final concentration 10 ng/ml) were added to the culture medium, reacted at 37° C. for 2 hr, added at 100 μL/well to a 96-well plate seeded with splenocytes, and cultured for 3 days in a 37° C./5% CO2 incubator. […]

[1] = test system: recombinant human IL-23 protein (rhIL-23); test: Binding of mouse antiserum to rhIL-23, ELISA; settings: rhIL-23 ELISA; antiserum of BALB/c mice 6 weeks after initial administration, 0.5 mg/body with Alhydrogel
Description: (§1) AJP001 conjugated peptide (SEQ ID NOs: 6-37) was dissolved in physiological saline, mixed with an equal amount of 2% Alhydrogel (invivogen), and this was intradermally administered to BALB/c mice (female, 6-week-old, N=5-6) at 0.5 mg/body 3 times at two-week intervals. Blood was collected before administration and at the time point of 6 weeks after initial administration, and the antibody titer (GMT) to each epitope sequence and binding ability to recombinant human IL-23 protein (rhIL-23) (Peprotech) were measured by the ELISA method (same method as in Example 1). The binding to rhIL-23 was evaluated by a binding ratio to normal serum by calculating the ratio of the absorbance of a well added with normal mouse serum to the absorbance of a well added with antiserum derived from a mouse administered with each AJP001 conjugated peptide (SEQ ID NOs: 6-37). In addition, the neutralization activity of mouse antiserum was evaluated using an action on IL-17 production in rhIL-23 stimulated mouse splenocyte as an index. The spleen of normal BALB/c mouse (female, 5-week-old, N=3) was triturated using a syringe barrel and a cell strainer and washed with and suspended in HBSS (−). Erythrocytes were then removed using ACK Buffer (Thermo fisher scientific), and splenocytes were isolated. The splenocytes were prepared to 2.5×10^6 cells/mL with 10% FBS/1% penicillin/streptomycin/4 ng/mL rmIL-2-containing RPMI1640 medium (culture medium), and seeded in a 96 well plate at 100 μl/well. The antiserum (final concentration 15-fold) of the mice administered with each AJP001 conjugated peptide and rhIL-23 (final concentration 10 ng/ml) were added to the culture medium, reacted at 37° C. for 2 hr, added at 100 μL/well to a 96-well plate seeded with splenocytes, and cultured for 3 days in a 37° C./5% CO2 incubator. An untreated well and a control well to which normal mouse serum and rhIL-23 were added were provided. IL-17A/F in the culture supernatant was measured using Mouse IL-17A/F ELISA kit (R&D systems), the proportion (%) of IL-17 to normal serum was calculated from the IL-17 concentrations of untreated well (A), control well (B), and well (C) to which antiserum of the mice administered with each AJP001 conjugated peptide was added and according to the following formula, and the neutralization activity was evaluated.
AJP001 conjugated peptide (SEQ ID NO: 6) was dissolved in physiological saline and intradermally administered to BALB/c mice (female, 6-week-old, N=6) at 1 mg/body 3 times at two-week intervals, and blood was collected every 2 weeks until 8 weeks. The antibody titer (GMT) of all the collected sera and the binding ability to rhIL-23 of the serum at 6 weeks were measured by the ELISA method. In FIG. 5, “*” means P<0.05.

[2] = test system: IL-17 production in rhIL-23 stimulated mouse splenocyte; test: Neutralization activity of mouse antiserum: IL-17 production in rhIL-23 stimulated mouse splenocyte; type: cell-based; settings: antiserum final 15-fold, rhIL-23 10 ng/ml, 3 days culture; IL-17A/F ELISA
Description: as §1
Percentage of IL-17 to normal serum (%)=100×(C−A/B−A)

p19 subunit = target: T1, p19 subunit (Homo sapiens, UniProt Q9NPF7); settings: compared with Ustekinumab; cited from earlier work
T1 sequence (Q9NPF7 20-189): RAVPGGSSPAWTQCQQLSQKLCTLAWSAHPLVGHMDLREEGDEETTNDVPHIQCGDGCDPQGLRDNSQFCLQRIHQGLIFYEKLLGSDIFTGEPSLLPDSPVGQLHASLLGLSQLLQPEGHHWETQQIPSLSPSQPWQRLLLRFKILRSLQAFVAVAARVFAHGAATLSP
T1 sequence (P29460 23-328 partner): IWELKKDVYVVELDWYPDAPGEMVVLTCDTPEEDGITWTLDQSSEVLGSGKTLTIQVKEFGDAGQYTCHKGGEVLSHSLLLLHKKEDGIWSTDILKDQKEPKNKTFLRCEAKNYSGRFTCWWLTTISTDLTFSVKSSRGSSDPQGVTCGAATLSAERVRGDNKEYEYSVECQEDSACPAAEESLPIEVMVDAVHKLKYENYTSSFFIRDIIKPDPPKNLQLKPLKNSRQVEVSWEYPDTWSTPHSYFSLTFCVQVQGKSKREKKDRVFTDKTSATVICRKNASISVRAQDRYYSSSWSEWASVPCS

Substance	antibody titer (GMT) (epitope peptide)	binding to IL-23 (binding ratio to normal serum) [1]	neutralization activity (percentage of IL-17 to normal serum (%)) [2] [%]	PASI90 (almost complete disappearance of psoriasis lesion) rate (p19 subunit)
29 (SPKQPWQR; not fully specified (N-terminus)) [compound 29]	9056	1.11	63.9	–
30 (KKSQPWQR; not fully specified (N-terminus)) [compound 30]	6917	1.2	68.9	–
31 (PSQPWQR; not fully specified (N-terminus); listed as Homo sapiens) [compound 31]	12417	0.99	63.4	–
32 (SQPWQR; not fully specified (N-terminus); listed as Homo sapiens) [compound 32]	5567	1.03	61.3	–
33 (QPWQR; not fully specified (N-terminus); listed as Homo sapiens) [compound 33]	16458	1.00	72.6	–
34 (PSQPWQRK; not fully specified (N-terminus); listed as Homo sapiens) [compound 34]	362	0.97	32.5	–
35 (SQPWQRK; not fully specified (N-terminus); listed as Homo sapiens) [compound 35]	92	1.30	32.5	–
36 (QPWQRSQPWQR; not fully specified (N-terminus)) [compound 36]	8202	1.10	70.3	–
37 (QPWQRGGGGSQPWQR; not fully specified (N-terminus)) [compound 37]	6459	1.05	63.9	–
Risankizumab	–	–	–	about twice as high as that of Ustekinumab
